Data reported in ChEMBL document CHEMBL1201862, “PubChem BioAssay data set” (2004).
Calls of active or inactive are those of the source. No stated cut-off is given here; in the data, actives have a measured IC50 and inactives only a lower limit.

Target: Envelope glycoprotein gp160 (Human immunodeficiency virus 1, UniProt Q6QLK5)
Assay: cell-free HIV fusion peptide-binding blockers – biochemical, uHTS, fluorescence dequenching, […] (AID 1986)

Envelope glycoprotein gp160, sequence (Q6QLK5 whole entry, the tested form may be a part): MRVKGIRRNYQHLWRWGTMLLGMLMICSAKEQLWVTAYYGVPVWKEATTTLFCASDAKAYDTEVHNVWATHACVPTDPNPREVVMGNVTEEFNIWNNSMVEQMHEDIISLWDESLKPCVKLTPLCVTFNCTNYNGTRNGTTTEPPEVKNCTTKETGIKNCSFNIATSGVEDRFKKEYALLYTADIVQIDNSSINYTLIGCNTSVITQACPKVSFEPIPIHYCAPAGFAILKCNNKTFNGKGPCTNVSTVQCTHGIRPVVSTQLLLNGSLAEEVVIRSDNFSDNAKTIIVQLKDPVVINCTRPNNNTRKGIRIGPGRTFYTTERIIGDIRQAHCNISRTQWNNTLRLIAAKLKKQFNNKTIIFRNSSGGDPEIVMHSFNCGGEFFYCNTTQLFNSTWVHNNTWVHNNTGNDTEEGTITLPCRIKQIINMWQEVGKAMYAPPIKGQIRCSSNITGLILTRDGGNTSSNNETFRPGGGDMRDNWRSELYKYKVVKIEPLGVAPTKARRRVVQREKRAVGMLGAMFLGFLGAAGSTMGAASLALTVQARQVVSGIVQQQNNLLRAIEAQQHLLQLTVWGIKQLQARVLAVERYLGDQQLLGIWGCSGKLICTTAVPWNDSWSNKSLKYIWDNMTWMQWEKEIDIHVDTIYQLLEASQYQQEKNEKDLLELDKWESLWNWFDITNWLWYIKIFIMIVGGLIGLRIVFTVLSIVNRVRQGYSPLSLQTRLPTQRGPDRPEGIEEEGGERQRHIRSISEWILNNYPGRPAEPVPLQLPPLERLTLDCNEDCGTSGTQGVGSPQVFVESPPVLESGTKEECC

Row | Structure (SMILES) | IC50
1 | COc1ccc(NC(=O)c2cnn3c(O)cc(C4CCN(C(=O)OC(C)(C)C)CC4)nc23)cc1Cl | 16.6 µM (active)
2 | O=C(O)CSCC(=O)N(Cc1ccccc1)c1nc(-c2ccccc2)c(-c2ccccc2)s1 | 13.3 µM (active)
